Patent US5591821A (priority 1993, dated 1997)

Molecular target: GVIA high affinity site, the N-type Ca^2+ channel (Rattus norvegicus, UniProt Q02294)
Assay type: binding

Chain of GVIA high affinity site, the N-type Ca^2+ channel (Q02294 whole entry, looked up): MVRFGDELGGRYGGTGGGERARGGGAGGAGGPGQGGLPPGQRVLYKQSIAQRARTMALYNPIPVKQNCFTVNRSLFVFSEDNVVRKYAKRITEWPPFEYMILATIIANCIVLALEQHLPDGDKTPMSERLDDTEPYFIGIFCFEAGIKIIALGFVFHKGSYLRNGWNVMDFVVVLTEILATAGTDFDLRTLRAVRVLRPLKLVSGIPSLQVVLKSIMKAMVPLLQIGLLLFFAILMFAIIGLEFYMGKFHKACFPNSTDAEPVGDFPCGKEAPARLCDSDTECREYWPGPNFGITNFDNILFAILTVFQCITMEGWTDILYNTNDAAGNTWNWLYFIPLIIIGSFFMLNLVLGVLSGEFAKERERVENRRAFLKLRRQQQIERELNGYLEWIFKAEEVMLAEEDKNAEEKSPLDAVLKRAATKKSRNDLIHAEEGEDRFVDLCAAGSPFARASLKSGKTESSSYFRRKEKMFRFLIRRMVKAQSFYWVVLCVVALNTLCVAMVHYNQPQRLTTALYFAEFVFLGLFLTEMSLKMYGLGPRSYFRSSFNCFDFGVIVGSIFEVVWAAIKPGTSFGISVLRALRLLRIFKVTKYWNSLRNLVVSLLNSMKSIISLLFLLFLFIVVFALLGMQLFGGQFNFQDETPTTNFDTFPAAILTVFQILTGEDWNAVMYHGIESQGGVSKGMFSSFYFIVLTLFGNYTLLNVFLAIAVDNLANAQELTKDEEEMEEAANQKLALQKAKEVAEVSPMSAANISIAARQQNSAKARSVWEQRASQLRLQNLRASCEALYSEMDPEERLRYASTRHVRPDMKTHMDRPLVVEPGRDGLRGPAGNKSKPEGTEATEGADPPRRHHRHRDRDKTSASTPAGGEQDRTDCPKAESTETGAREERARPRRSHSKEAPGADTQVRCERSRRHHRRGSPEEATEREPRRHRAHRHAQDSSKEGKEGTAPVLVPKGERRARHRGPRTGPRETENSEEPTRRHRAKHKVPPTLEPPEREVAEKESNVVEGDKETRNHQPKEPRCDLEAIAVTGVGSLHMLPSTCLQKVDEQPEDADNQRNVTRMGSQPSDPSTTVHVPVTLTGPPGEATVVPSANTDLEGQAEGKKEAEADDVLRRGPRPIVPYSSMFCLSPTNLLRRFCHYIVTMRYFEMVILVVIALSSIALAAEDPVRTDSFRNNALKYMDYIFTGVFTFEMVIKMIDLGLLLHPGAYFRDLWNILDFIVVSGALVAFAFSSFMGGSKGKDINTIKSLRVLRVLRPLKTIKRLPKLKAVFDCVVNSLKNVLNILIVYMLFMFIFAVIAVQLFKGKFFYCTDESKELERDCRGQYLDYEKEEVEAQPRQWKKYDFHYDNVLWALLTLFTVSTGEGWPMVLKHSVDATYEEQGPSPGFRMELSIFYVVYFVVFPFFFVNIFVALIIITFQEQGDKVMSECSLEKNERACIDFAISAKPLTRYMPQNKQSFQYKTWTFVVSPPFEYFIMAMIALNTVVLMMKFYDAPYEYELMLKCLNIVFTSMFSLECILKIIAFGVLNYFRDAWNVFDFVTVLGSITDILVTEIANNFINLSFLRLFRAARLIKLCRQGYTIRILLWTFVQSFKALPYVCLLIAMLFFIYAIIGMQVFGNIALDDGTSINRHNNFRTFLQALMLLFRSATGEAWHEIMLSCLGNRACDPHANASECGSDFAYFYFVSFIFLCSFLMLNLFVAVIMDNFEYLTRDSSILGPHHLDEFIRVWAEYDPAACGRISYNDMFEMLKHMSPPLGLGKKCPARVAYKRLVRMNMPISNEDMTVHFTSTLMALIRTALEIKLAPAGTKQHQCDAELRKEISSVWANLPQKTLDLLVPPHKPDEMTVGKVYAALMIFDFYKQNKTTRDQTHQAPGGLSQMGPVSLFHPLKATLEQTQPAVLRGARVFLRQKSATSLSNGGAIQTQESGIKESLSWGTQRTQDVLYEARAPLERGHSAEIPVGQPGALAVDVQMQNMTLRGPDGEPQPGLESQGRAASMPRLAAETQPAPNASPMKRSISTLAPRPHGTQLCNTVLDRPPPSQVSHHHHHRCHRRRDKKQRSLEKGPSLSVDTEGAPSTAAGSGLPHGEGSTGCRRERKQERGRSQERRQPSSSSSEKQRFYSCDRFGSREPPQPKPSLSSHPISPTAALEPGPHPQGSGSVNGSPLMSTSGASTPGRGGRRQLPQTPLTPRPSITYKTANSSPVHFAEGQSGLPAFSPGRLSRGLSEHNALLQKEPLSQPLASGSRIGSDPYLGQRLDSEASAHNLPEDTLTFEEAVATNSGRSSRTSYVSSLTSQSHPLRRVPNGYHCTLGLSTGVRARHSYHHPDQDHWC

## ω-agatoxin IVA
  Competition for / displacement of 125I-GVIA binding: did not
